Where two headings read alike, the source gives them in different places.
Columns and labels:
mouse HTR1B = mouse HTR1B (Mus musculus, UniProt P28334); details: Fig. S1M
murine HTR1B receptor = murine HTR1B receptor (Mus musculus, UniProt P28334); assay: [3H]-Kyn binding competition, Htr1b-overexpressing HEK293T membranes; details: SB9 at ∼90 μmol/L, equal to the concentration administered in vivo
[1] = tested on: Cyclins D1, D2, and E1 (targets of serotonin-HTR1B signaling); assay: Bone; assay type: in vivo, mouse; details: SB9-treated mice
MLL/AF9 AML cells = assay type: in vivo, mouse
[2] = tested on: Saa3 expression in mouse primary osteoblasts; assay: Saa3 mRNA in primary differentiated mouse calvaria osteoblasts; assay type: cell-based; details: 25 nmol/L, 24 hours
Ido1 = assay: CRISPR/Cas9-mediated Ido1 targeting of primary murine MLL/AF9 cells; assay type: cell-based, mouse; details: Ido1 exon 3
[3] = tested on: patient-derived AML cells; assay: PDX in NSG mice, combination therapy; assay type: in vivo; details: day 22 after initiating therapy
[4] = tested on: patient-derived AML cells; assay: Patient-derived AML xenograft; assay type: in vivo, NSGS mice; details: epacadostat 300 mg/kg daily gavage
[5] = Systemic toxicity of epacadostat diet in WT mice; assay type: in vivo, mouse; details: epacadostat ad libitum diet 0.8 g/kg
[6] = tested on: Kyn/Trp ratio (indicator of IDO1 activity); assay: Serum Kyn and Trp levels; assay type: in vivo, mouse
5-HT1B receptor (HTR1B) = 5-HT1B receptor (HTR1B) (Homo sapiens, UniProt P28222); assay: GloSensor Gi/o-mediated cAMP inhibition assay in transfected HEK293T cells; assay type: cell-based
Chain of 5-HT1B receptor (HTR1B) (P28222 whole entry): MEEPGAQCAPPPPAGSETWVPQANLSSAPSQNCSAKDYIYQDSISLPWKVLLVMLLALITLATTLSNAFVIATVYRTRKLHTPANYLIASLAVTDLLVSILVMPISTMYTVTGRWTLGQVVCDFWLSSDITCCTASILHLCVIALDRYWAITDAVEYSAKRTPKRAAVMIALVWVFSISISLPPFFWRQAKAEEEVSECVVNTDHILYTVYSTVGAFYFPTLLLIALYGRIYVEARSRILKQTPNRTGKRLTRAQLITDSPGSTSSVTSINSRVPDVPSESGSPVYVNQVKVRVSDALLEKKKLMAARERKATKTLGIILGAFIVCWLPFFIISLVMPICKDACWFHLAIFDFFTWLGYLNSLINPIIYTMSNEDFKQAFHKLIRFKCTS

[7] = tested on: leukemic blasts (hCD45+ hCD33+); assay: Kyn injection in low AML burden PDX mice; assay type: in vivo, NSGS mice; details: Kyn 20mg/kg for 1 week
THP-1 and OCI-AML3 cells = assay: Proliferation of human AML cell lines exposed to SAA1; assay type: cell-based; details: SAA1 1 μg/mL, 24–72 hours, versus vehicle
[8] = tested on: IDO1 expression in OCI-AML3 cells; assay: IDO1 mRNA in human AML/MDS cell lines exposed to recombinant proteins; assay type: cell-based
[9] = tested on: Ido1 expression in WEHI-3B cells; assay: Ido1 mRNA in WEHI-3B cells exposed to recombinant SAA; assay type: cell-based, mouse; details: exposed overnight
[10] = tested on: AHR target genes (CYP1A1, CYP1A2); assay: AHR target gene mRNA in human AML and MDS cells exposed to SAA1; assay type: cell-based; details: SAA1 1µg/ml o/n
[11] = tested on: leukemic blasts (hCD45+CD33+); assay type: in vivo, NSGS mice
[12] = tested on: total human BM cells isolated from PDX mice; assay: Ex vivo human BM cells isolated from PDX mice; assay type: cell-based; details: SAA1 1 μg/mL, 24 hours
[13] = tested on: lineage-depleted AML and MDS BM-MNCs; assay type: cell-based, human; details: SAA1 5 μg/mL, 24 hours
WEHI-3B cells = assay: Proliferation of mouse AML cell line exposed to SAA3; assay type: cell-based; details: SAA3 1 μg/mL, 24–72 hours, versus vehicle
[14] = SAA1 i.v., 2- and 8-day treatments

Chain of murine HTR1B receptor (P28334 whole entry): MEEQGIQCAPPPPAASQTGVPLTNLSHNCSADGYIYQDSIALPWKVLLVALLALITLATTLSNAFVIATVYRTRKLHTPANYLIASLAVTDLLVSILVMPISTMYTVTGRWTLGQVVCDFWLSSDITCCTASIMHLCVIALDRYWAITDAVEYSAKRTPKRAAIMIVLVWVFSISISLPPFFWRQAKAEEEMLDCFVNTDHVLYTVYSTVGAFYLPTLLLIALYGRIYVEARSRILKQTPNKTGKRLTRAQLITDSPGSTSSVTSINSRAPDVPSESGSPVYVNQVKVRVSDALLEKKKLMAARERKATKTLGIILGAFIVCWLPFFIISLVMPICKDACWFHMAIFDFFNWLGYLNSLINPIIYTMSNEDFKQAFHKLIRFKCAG
Chain of mouse HTR1B (P28334 whole entry): as above

Molecule: Cc1nc(-c2ccc(-c3ccc(C(=O)N4CCc5cc6c(cc54)C4(CCN(C)CC4)CO6)cc3)c(C)c2)no1 [SB224289, 1′-methyl-5-[[2′-methyl-4“-(5-methyl-1,2,4-oxadiazol-3-yl)biphenyl-4-yl]carbonyl]-2,3,6,7-tetrahydro-spiro[furo[2,3-f]indole-3,4-”piperidine]]
- 5-HT binding to HTR1B at the administered dose (mouse HTR1B): effective in abolishing 5-HT binding to HTR1B
- effect on Kyn binding to the murine HTR1B receptor (murine HTR1B receptor): no effect
- bone expression of Cyclins D1, D2, and E1 [1]: upregulated
- protection of MLL/AF9-injected mice (MLL/AF9 AML cells; SB9 5 mg/kg i.p. daily from 1 week after leukemia injection): only partially protected
- survival (MLL/AF9 AML cells; SB9 5 mg/kg i.p. daily versus vehicle): significant increase in survival

Molecule: NCCc1c[nH]c2ccc(O)cc12 [5-HT, 5-hydroxytryptamine, reference compound]
- Saa3 expression in mouse osteoblasts (Htr1b+/+) [2]: had no effect

Molecule: sgRNA#196: chemically modified mouse sgRNA targeting Ido1 exon 3: CUGCCCACACUGAGCACGGA (chemically modified, pattern not given here)
- deletion efficiency (Ido1): ~40%

Molecule: Nc1ccn([C@@H]2O[C@H](CO)[C@@H](O)[C@@H]2O)c(=O)n1 [Ara-C, 1-β-D-arabinofuranosylcytosine]
- effect on leukemic burden in SP relative to BM [3]: more sustained in the SP than in BM

Molecule: NS(=O)(=O)NCCNc1nonc1C(=NO)Nc1ccc(F)c(Br)c1 [epacadostat]
- effect on leukemic burden in SP relative to BM [3]: more pronounced effect in the SP
- G0–G1 and G2–M populations of leukemic blasts [4]: remained unchanged
- leukemic blast apoptosis [4]: increased leukemic blast apoptosis
- proliferation of leukemic blasts (hCD45+CD33+), in vivo cell cycle [4]: less proliferative
- reduction in Kyn/Trp levels in blood ([4]; 12-day regimen): ~20%
- reduction in AML BM burden ([4]; versus vehicle): ~20%
- systemic toxicity [5]: did not show any obvious systemic toxicity
- leukemia progression (MLL/AF9 AML cells; epacadostat diet 0.8 g/kg): tendency toward a slower leukemia progression
- survival (MLL/AF9 AML cells; epacadostat diet 0.8 g/kg): slight—yet significant—increase in survival
- AML burden (MLL/AF9 AML cells; epacadostat diet 1.6 g/kg): significant delay in AML burden
- survival (MLL/AF9 AML cells; epacadostat diet 1.6 g/kg, compared with the lower dose): significantly prolonged survival
- reduction in serum Kyn levels ([6]; MLL/AF9 mice, epacadostat diet 1.6 g/kg): 35%
- reduction in basal (no leukemia) circulating Kyn/Trp levels ([6]; WT mice, epacadostat ad libitum diet 0.8 g/kg): 54%
- systemic Kyn/Trp levels in MLL/AF9 leukemic mice ([6]; epacadostat diet 0.8 g/kg): did not reduce the 1.5-fold increase in systemic Kyn/Trp levels

Molecule: Nc1ccccc1C(=O)CC(N)C(=O)O (stereo not drawn) [Kyn, kynurenine]
- mode of action on Gi/o-mediated cAMP production through HTR1B (5-HT1B receptor (HTR1B)): partial agonist
- EC50 (5-HT1B receptor (HTR1B); EC50 (nmol/L), cAMP Gi agonist, human HTR1B): ~772 nM
- AML burden in BM and SP [7]: AML burden increased in BM and SP
- proliferative capacity of the leukemic blasts [7]: increases
- serum SAA3 ([7]; low AML burden PDX mice): increases serum SAA3
- Saa3 expression in Htr1b−/− primary osteoblasts [2]: failed to upregulate Saa3 expression
- Saa3 expression in mouse osteoblasts (Htr1b+/+) [2]: potently upregulated Saa3 expression

B1: SAA1: recombinant human acute-phase protein serum amyloid A1 (PeproTech) (protein, UniProt P0DJI8 19-122, looked up)
Serum amyloid A-1 protein: RSFFSFLGEAFDGARDMWRAYSDMREANYIGSDKYFHARGNYDAAKRGPGGAWAAEVITDARENIQRFFGHGAEDSLADQAANEWGRSGKDPNHFRPAGLPEKY
- proliferation of human AML cell lines (THP-1 and OCI-AML3 cells): increased proliferation
- IDO1 upregulation in other cell lines ([8]; Fig. S4O, exposed o/n to SAA1): observed across several human AML cell lines as well as the MDS-L cell line
- IDO1 expression in OCI-AML3 cells ([8]; overnight, 50 ng/mL recombinant protein): the only osteoblast-secreted molecule able to upregulate IDO1 expression
- Ido1 expression in WEHI-3B cells [9]: able to upregulate Ido1 expression in WEHI-3B cells with a magnitude similar to SAA3
- AHR target gene expression in human AML and MDS cell lines [10]: upregulated most of the main AHR target genes
- proliferative rate of leukemic blasts (EdU+ cells, S-phase) ([11]; SAA1 100 μg/kg i.v., 2- and 8-day treatments): maintained and prominent increase in the proliferative rate of leukemic blasts
- G0–G1 cells of leukemic blasts [11, 14]: decrease
- G2–M phase of leukemic blasts [11, 14]: unvarying
- increase in AML burden in the BM ([11]; SAA1 i.v., completion of the 8-day treatment): 1.5 fold
- IDO1 expression in PDX-isolated human cells [12]: upregulated only in response to SAA1 in the PDX AML-isolated human cells
- proliferation of human cells from CD34+ healthy injected mice [12]: unresponsive
- proliferation of patient-derived cells from AML-injected mice ([12]; versus vehicle): high proliferative activity
- IDO1 mRNA levels in patient-derived BM-MNCs [13]: increased
- proliferation of lineage-depleted AML and MDS BM-MNCs from patient aspirates [13]: promoted proliferation

B2: SAA3: recombinant mouse SAA3 (Cusabio), murine ortholog of SAA1 (protein, UniProt P04918 19-122, looked up)
Serum amyloid A-3 protein: QRWVQFMKEAGQGSRDMWRAYSDMKKANWKNSDKYFHARGNYDAARRGPGGAWAAKVISDAREAVQKFTGHGAEDSRADQFANEWGRSGKDPNHFRPAGLPKRY
- Ido1 expression in WEHI-3B cells [9]: upregulated Ido1 expression
- proliferation of mouse AML cell line (WEHI-3B cells): increased proliferation
